Data from patent publication US20050176829A1, “Methods for treating hypothyroidism” (priority 2003, published 2005).
Entries after “also recorded” stand apart in the source; their conditions may differ. Where two headings read alike, the source gives them in different places. Marks after values point to notes of the source that are not given here.

Columns and labels:
[1] = Heart rate after daily bolus administration of T3 in rats; format: in vivo, rat; conditions: for T3max−Conmax: max HR T3 minus max HR saline control
[2] = rats (Goslings et al.); cited from earlier work
clinical = conditions: human, in vivo, metabolic clearance rate (MCR) of T3
[3] = test system: alpha-myosin heavy chain (alpha-MHC)
Method: FIG. 3A-3B. […] A: Representative agarose gel showing alpha-MHC hnRNA PCR products stained with ethidium bromide and visualized with ultraviolet light. PCR fragment size is 335 basepairs (bp). B: Quantification of hnRNA alpha-MHC 335 bp fragment from left ventricular RNA shown as a percentage of euthyroid (normal) values for three rats.
FIG. 4. […] Three 200 gram rats per each group.
FIG. 6. […] Hearts were removed after 3-4 days (24 hours after the last injection), and RNA was extracted from the left ventricles. Transcription was measured by quantitation of α-MHC hnRNA. The content of α-MHC hnRNA measured in these hearts is expressed as the percent of euthyroid (100%).
Methods and Materials—Animal Studies. Studies were conducted using adult Sprague-Dawley rats weighing between 180 and 225 g. Thyroidectomies were performed by surgical removal of the thyroid gland. […] After animals were sacrificed, the left ventricle of the heart was immediately frozen in liquid nitrogen and then treated for RNA extraction as previously described (Balkman et al. Endocrinology 130: 1002-6, 1992). Reverse transcription polymerase chain reaction (RT-PCR) assay of total left ventricular RNA for alpha-myosin heavy chain (alpha-MHC) heteronuclear (hn) RNA was carried out as previously described (Danzi and Klein, Thyroid 12(6): 467-72, 2002; Danzi et al. Am J Physiol Heart Circ Physiol. 284(6) :H2255-62, 2003). Results are expressed as means ±SE.
Expression of the cardiac- specific gene alpha-myosin heavy chain (alpha-MHC) is a sensitive indicator of normal cardiac function (Ojamaa et al. CVR&R 23: 20-6, 2002; Danzi et al. Am J Physiol Heart Circ Physiol. 284(6) :H2255-62, 2003; Danzi and Klein, Thyroid 12(6): 467-72, 2002; Ojamma and Klein, Endocrinology 132: 1002-6, 1993).

[4] = Serum T3, free T3 and T4 levels in hypothyroid (thyroidectomized) rats after T3 infusion or bolus injection (radioimmunoassay); format: in vivo, rat
Text: FIG. 2. […] Three rats per each group.
Methods and Materials—Animal Studies. […] Results are expressed as means ±SE.

[5] = Serum half-life of T3 after bolus injection in thyroidectomized rats; format: in vivo; conditions: Sprague-Dawley, rat, intravenous, 1 ug
[6] = hypothyroid rats, T3 infusion 7.0 μg/d, 1 week; cited from earlier work
[7] = cited from earlier work
[8] = daily bolus T3 0.8 μg/200 gram rat, day 1
[9] = daily bolus T3 0.8 μg/200 gram rat, day 2
[10] = daily bolus T3 0.8 μg/200 gram rat, day 3
[11] = daily bolus T3 0.8 μg/200 gram rat, day 4
[12] = daily bolus T3 0.8 μg/200 gram rat, day 5
[13] = day 6, no dosing of T3 on this day
[14] = day 7, no dosing of T3 on this day

Structure (SMILES): N[C@@H](Cc1cc(I)c(Oc2ccc(O)c(I)c2)c(I)c1)C(=O)O [T3, triiodothyronine]
- Δ HR ([1]; AVG of days 1-7): 84
- min HR ([1]; AVG of days 1-7, P < 0.001 vs control): 307^+
- max HR ([1]; AVG of days 1-7, P < 0.002 vs control): 390^
- maximum heart rate versus normal ([1]; bolus daily injections of T3 at 0.8 μg): increasing maximum heart rate above normal
- max HR [1, 8]: 345
- min HR [1, 8]: 270
- Δ HR [1, 8]: 75
- max HR [1, 9]: 370
- min HR [1, 9]: 315
- Δ HR [1, 9]: 55
- max HR [1, 10]: 385**
- min HR [1, 10]: 320
- Δ HR [1, 10]: 65
- max HR [1, 11]: 410**
- min HR [1, 11]: 320
- Δ HR [1, 11]: 90
- max HR [1, 12]: 415**
- min HR [1, 12]: 300
- Δ HR [1, 12]: 115
- max HR [1, 13]: 425*
- min HR [1, 13]: 300*
- Δ HR [1, 13]: 125
- max HR [1, 14]: 380*
- min HR [1, 14]: 325*
- Δ HR [1, 14]: 65
- T3max−Conmax ([1]; AVG): 43
- T3max−Conmax ([1]; day 1): 0
- T3max−Conmax ([1]; day 2): 10
- T3max−Conmax ([1]; day 3): 45
- T3max−Conmax ([1]; day 4): 70
- T3max−Conmax ([1]; day 5): 65
- T3max−Conmax ([1]; day 6 (no T3 dosing)): 70
- T3max−Conmax ([1]; day 7 (no T3 dosing)): 40
- metabolic clearance rate (MCR) of T3 [2]: 2.93 mL/min/kg
- clearance (clinical): ~0.217 mL/min/kg
- alpha-MHC expression versus normal ([3]; hypothyroid rats, T3 infusion 0.25 and 0.5 μg/day): normalization of alpha-MHC expression was observed
- alpha-myosin HC expression versus normal ([3]; hypothyroid rats, bolus daily injections 0.25-0.8 μg T3/day): not by bolus daily injections
- alpha-myosin HC expression versus normal ([3]; hypothyroid rats, constant infusion 0.25-0.8 μg T3/day, 3-4 days): restored to normal
- alpha-MHC cardiac transcription ([3]; thyroidectomized rats, bolus injection 1 μg T3 each day for 2 days): 60 % of normal
- alpha-MHC expression (hnRNA) ([3]; thyroidectomized rats, single bolus injection of 1 μg T3, time course): transient increase in alpha-MHC expression
- concentration at 3 days ([4]; Sprague-Dawley, rat, serum, subcutaneous, 0.25 μg/d): 0.44 ± 0.03 ng/mL
- concentration at 3 days ([4]; Sprague-Dawley, rat, serum, subcutaneous, 0.8 μg/d): 0.78 ± 0.06 ng/mL
- concentration at 1 week ([4]; Sprague-Dawley, rat, serum, subcutaneous, 1 μg/d): 1.32 ± 0.14 ng/mL
- serum T3 levels versus normal ([4]; hypothyroid rats, 0.8 μg daily bolus injection, 24 hours after last injection): not effective in restoring serum T3 levels to normal
- serum T3 levels versus normal ([4]; hypothyroid rats, 0.8 μg/day by subcutaneous miniosmotic pump infusion, blood sampled at 72): restored to normal; also recorded: restores serum T3 levels to about normal
- serum T3 levels versus normal ([4]; hypothyroid rats, T3 infusion 0.25 μg/day and 0.5 μg/day): elevates serum T3 above levels observed in thyroidectomized animals, but does not fully restore serum T3 levels to normal
- serum T3 levels versus normal ([4]; hypothyroid rats, T3 infusion at doses above 0.8 μg/day): elevated serum T3 levels above normal
- serum T3 levels versus normal ([4]; thyroidectomized rats, single bolus injection 1 μg T3/day for 7 days): failed to restore serum T3 levels to normal
- half-life [5]: 7 h
- Heart weight/Body weight [6]: 3.64 ± 0.07^a
- metabolic clearance rate (MCR) of T3 ([7]; humans (Chopra and Sabatino)): 24 L/day/70 kg
- metabolic clearance rate (MCR) of T3 ([7]; hypothyroid humans (Bianchi et al.)): 11.4 L/day/m^2
